As usually defined, the pIC50 is the IC50 on a negative log10 scale, so that one unit is a factor of ten. In general, inhibition refers to the drop in the measured response relative to a control, in per cent. The solubility is the concentration that dissolves in the medium under given conditions. In general, logD refers to the decadic logarithm of the distribution of all forms, ionised or not, between an organic phase and buffer at a given pH. High values mean a more lipophilic compound, low ones a more hydrophilic compound.

Data set [1] has as its target T1, von Hippel-Lindau disease tumor suppressor/Dual specificity mitogen-activated protein kinase kinase 2/Dual specificity mitogen-activated protein kinase kinase 1 (Homo sapiens) (UniProt P36507+Q02750+P40337). Put plainly: Protac activity at VHL/MEK in human A375 cells assessed as maximal MEK1 degradation at 10 uM incubated for 8 hrs in presence of ploy(I:C) stimulation by Surefire assay. It is filed as cell-based.

Data set [2] has as its target T1, von Hippel-Lindau disease tumor suppressor/Dual specificity mitogen-activated protein kinase kinase 2/Dual specificity mitogen-activated protein kinase kinase 1 (Homo sapiens). The experiment in a line: Protac activity at VHL/MEK in human A375 cells assessed as MEK1 degradation at 1 to 10 uM incubated for 12 hrs followed by poly(I:C) treatment and measured after 4 hrs by Surefire assay. The data set is classed as cell-based.

The target in data set [3] is T2, Dual specificity mitogen-activated protein kinase kinase 1 (Homo sapiens, UniProt Q02750). Put plainly: Inhibition of MEK1 (unknown origin) incubated for 60 mins in presence of ATP by Kinase Glo luminescence assay. For orientation: Kinase-Glo reads ATP consumption through a luciferase reaction.
In data set [4] the target is T1, von Hippel-Lindau disease tumor suppressor/Dual specificity mitogen-activated protein kinase kinase 2/Dual specificity mitogen-activated protein kinase kinase 1 (Homo sapiens). Put plainly: Protac activity at VHL/MEK in human A375 cells assessed as MEK2 degradation at 10 uM incubated for 16 hrs in presence of poly(I:C) stimulation by immunoblotting analysis. It is filed as cell-based. For orientation: A western blot detects proteins with antibodies after separation by electrophoresis.

Data set [5] has the same target. Put plainly: Protac activity at VHL/MEK in human A375 cells assessed as reduction in IL6 secretion at 10 uM incubated for 12 hrs followed by poly(I:C) treatment and measured after 4 hrs by AlphaLISA assay. It is filed as cell-based. (Alpha assays give light when donor and acceptor beads are brought close together.)
The target is the same in data set [6]. The experiment in a line: Protac activity at VHL/MEK in human A375 cells assessed as reduction in ERK1/2 phosphorylation at 10 uM incubated for >=8 hrs in presence of poly(I:C) stimulation by Surefire assay relative to control. The data set is classed as cell-based.
Data set [7] has the same target. Put plainly: Protac activity at VHL/MEK in human A375 cells assessed as MEK1 degradation at 10 uM incubated for 16 hrs in presence of poly(I:C) stimulation by immunoblotting analysis. The data set is classed as cell-based.
Data set [8] shares this target. The experiment in a line: Protac activity at VHL/MEK in human A375 cells assessed as MEK1 degradation at 1 uM incubated for 16 hrs in presence of poly(I:C) stimulation by Surefire assay relative to control. It is filed as cell-based.
Data set [9] has the same target. Put plainly: Protac activity at VHL/MEK in human A375 cells assessed as MEK1 degradation at 10 uM incubated for 2 hrs in presence of ploy(I:C) stimulation by Surefire assay. The data set is classed as cell-based.
Data set [10] relates to A-375. Put plainly: Antiproliferative activity against human A375 cells assessed as growth inhibition at 10 uM measured up to 72 hrs by IncuCyte zoom live cell analysis. It is filed as functional, cell-based.
The target in data set [11] is T1, von Hippel-Lindau disease tumor suppressor/Dual specificity mitogen-activated protein kinase kinase 2/Dual specificity mitogen-activated protein kinase kinase 1 (Homo sapiens). Put plainly: Protac activity at VHL/MEK in human A375 cells assessed as reduction in ERK1/2 phosphorylation at 10 uM incubated for 2 hrs in presence of poly(I:C) stimulation by Surefire assay. The data set is classed as cell-based.

Data set [12] shares this target. Put plainly: Protac activity at VHL/MEK in human A375 cells assessed as […] at <10 uM incubated for 12 hrs followed by poly(I:C) treatment and measured after 4 hrs by Surefire assay. The data set is classed as cell-based.
For data set [13] the target is unchanged. Put plainly: Protac activity at VHL/MEK in human A375 cells assessed as MEK1 degradation at 10 uM incubated for 16 hrs in presence of poly(I:C) stimulation by Surefire assay relative to control. The data set is classed as cell-based.
Data set [14] is described as follows: Aqueous solubility of the compound in buffer at pH 7.4. It is filed as physicochemical.
Data set [15] can be described thus: Lipophilicity, log D of compound. The data set is classed as physicochemical. As to conditions: octanol/water.
Data set [16] addresses T2, Dual specificity mitogen-activated protein kinase kinase 1. Put plainly: Inhibition of MEK1 in human A375 cells assessed as reduction in ERK1/2 phosphorylation at 10 uM incubated for 1 to 16 hrs in presence of poly(I:C) stimulation by Surefire assay. The data set is classed as cell-based.
The target is the same in data set [17]. Put plainly: Inhibition of MEK1 in human A375 cells assessed as inhibition of ERK1/2 phosphorylation at 1 to 10 uM incubated for 12 hrs followed by poly(I:C) treatment and measured after 4 hrs by Surefire assay. It is filed as cell-based.
For data set [18], the system named is A-375. The experiment in a line: Reduction in MEK1 protein level in human A375 cells at 100 pM to 10 uM incubated for 12 hrs followed by poly(I:C) treatment and measured after 4 hrs by Surefire assay relative to untreated control. The data set is classed as functional.
Data set [19] has as its system A-375. The experiment in a line: Reduction in MEK1 protein expression in human A375 cells at 10 uM incubated for 16 hrs in presence of poly(I:C) stimulation by Surefire assay. The data set is classed as functional, cell-based.
Data set [20] addresses T1, von Hippel-Lindau disease tumor suppressor/Dual specificity mitogen-activated protein kinase kinase 2/Dual specificity mitogen-activated protein kinase kinase 1 (Homo sapiens). Put plainly: Protac activity at VHL/MEK in human A375 cells assessed as MEK1 degradation at 10 uM incubated up to 8 hrs in presence of poly(I:C) stimulation by Surefire assay. It is filed as cell-based.

The target in data set [21] is T2, Dual specificity mitogen-activated protein kinase kinase 1. Put plainly: Inhibition of MEK1 in human A375 cells assessed as reduction in IL6 secretion at 1 to 10 uM incubated for 12 hrs followed by poly(I:C) treatment and measured after 4 hrs by AlphaLISA assay. The data set is classed as cell-based.
The subject of data set [22] is A-375. Put plainly: Antiproliferative activity against human A375 cells assessed as reduction in cell viability. It is filed as functional, cell-based.

pIC50: −log10 of the molar value. Activity calls are given as the source filed them. The calls are words filed in the database; no cut-off is given here. Some results are limits rather than exact numbers.

T1 sequence (P36507 whole entry, looked up): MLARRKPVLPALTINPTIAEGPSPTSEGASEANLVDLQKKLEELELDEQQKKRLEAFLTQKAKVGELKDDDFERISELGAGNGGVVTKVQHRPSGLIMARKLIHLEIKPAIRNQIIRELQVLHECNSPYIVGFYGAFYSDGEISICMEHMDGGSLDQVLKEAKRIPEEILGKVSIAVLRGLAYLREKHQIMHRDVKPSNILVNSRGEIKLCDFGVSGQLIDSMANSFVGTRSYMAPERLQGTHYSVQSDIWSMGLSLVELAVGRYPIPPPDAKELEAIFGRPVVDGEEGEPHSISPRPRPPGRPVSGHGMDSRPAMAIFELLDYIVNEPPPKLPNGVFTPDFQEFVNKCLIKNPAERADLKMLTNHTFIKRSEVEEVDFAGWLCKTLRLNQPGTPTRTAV
T1 sequence (P40337 whole entry, looked up): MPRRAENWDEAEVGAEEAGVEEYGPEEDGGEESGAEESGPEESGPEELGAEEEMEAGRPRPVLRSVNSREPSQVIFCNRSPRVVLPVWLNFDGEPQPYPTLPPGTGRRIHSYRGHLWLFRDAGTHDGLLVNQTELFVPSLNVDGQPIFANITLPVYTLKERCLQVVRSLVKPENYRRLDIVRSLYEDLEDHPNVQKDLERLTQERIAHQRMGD
T1 sequence (Q02750 whole entry, looked up): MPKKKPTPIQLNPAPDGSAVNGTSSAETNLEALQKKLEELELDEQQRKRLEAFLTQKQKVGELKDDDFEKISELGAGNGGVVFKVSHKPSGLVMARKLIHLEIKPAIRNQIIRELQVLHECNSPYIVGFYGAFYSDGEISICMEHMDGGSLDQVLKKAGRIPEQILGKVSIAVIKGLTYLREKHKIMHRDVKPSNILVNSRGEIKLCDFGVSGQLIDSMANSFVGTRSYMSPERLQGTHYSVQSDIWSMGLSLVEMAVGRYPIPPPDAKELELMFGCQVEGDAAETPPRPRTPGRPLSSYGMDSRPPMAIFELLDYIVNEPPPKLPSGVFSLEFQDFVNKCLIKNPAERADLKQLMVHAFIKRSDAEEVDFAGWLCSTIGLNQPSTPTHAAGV
T2 sequence (Q02750 whole entry): as the sequence (Q02750 whole entry, looked up) above

As to `Cc1ncsc1-c1ccc([C@H](C)NC(=O)[C@@H]2C[C@@H](O)CN2C(=O)[C@@H](NC(=O)COCCOCCOCCNC(=O)CCc2ccc(S(=O)(=O)Nc3cc(C)c(=O)n(C)c3Nc3ccc(I)cc3F)cc2)C(C)(C)C)cc1`, the outcome in [1], in data set [2], in data set [4], in data set [5], in data set [7] and in [9] was Active. For the same molecule, the result in data set [11] and in data set [12] was Active. The pIC50 in data set [3] was 7.00. In addition, the inhibition in data set [6] is 100%. Besides, the Activity worked out at 90% in data set [8] and 94% in data set [13]. Further, the “growth inhibition (GI)” value in the data set on A-375 [10] is “Active”.

On to `Cc1ncsc1-c1ccc([C@H](C)NC(=O)[C@@H]2C[C@@H](O)CN2C(=O)[C@@H](NC(=O)COCCOCCOCCOCCNC(=O)CCc2ccc(S(=O)(=O)Nc3cc(C)c(=O)n(C)c3Nc3ccc(I)cc3F)cc2)C(C)(C)C)cc1`, for which the solubility in data set [14] was < 1.5 µM. Besides, the outcome in data set [1], in data set [2], in [4], in data set [5], in [7] and in [9] was Active. For the same molecule, the outcome in data set [11] and in data set [12] was Active. Also, the pIC50 in data set [3] was 7.00. For the same molecule, the inhibition in data set [6] was determined as 100%. In addition, the Activity in [8] came to 91%; in data set [13], 96%. Moreover, the logD in data set [15] stood at 4.3. For the same molecule, the “growth inhibition (GI)” value in the data set on A-375 [10] is “Active”.

As for `Cc1cc(NS(=O)(=O)c2ccccc2)c(Nc2ccc(I)cc2F)n(C)c1=O`, the inhibition result (in [16]; in data set [17]; with A-375 [19]; in data set [21]) was “Active” each time. Further, the pIC50 in data set [3] was 6.40. The result in data set [4], in data set [7] and in data set [20] was inactive. In addition, the Activity in data set [8] is -7%; in [13] it was 1%. In addition, in the data set on A-375 [18], the “inhibition (INH)” value is recorded as 20%. Also, in data set [15], the logD came to 3.9. Moreover, the “growth inhibition (GI)” value with A-375 [10] is “Active”.

For the molecule `CC(=O)Nc1cccc(-n2c(=O)n(C3CC3)c(=O)c3c(Nc4ccc(I)cc4F)n(C)c(=O)c(C)c32)c1` [TRAMETINIB], in the data set with A-375 [22], the pIC50 is 9.13.

For `O=C(c1ccc(F)c(F)c1Nc1ccc(I)cc1F)N1CC(O)([C@@H]2CCCCN2)C1` [COBIMETINIB], the pIC50 with A-375 [22] was 8.30.

As for `Cc1ncsc1-c1ccc([C@H](C)NC(=O)[C@@H]2C[C@@H](O)CN2C(=O)[C@@H](NC(=O)COCCOCCOCCNC(=O)COc2ccc(S(=O)(=O)Nc3cc(C)c(=O)n(C)c3Nc3ccc(I)cc3F)cc2)C(C)(C)C)cc1`, the outcome in [1], in [2], in data set [4], in data set [5], in data set [7] and in [9] was Active. The outcome in [11] and in data set [12] was Active. In data set [3], the pIC50 was 6.80. In addition, the inhibition in [6] amounted to 100%. Moreover, the Activity in [8] came out at 72%; in data set [13], 95%. Besides, the “growth inhibition (GI)” value in the data set on A-375 [10] is “Active”.
